Data reported in article PMC4451856, “Identification of a Peptide from In vivo Bacteriophage Display with Homology to EGFL6: A Candidate Tumor Vasculature Ligand in Breast Cancer” (Journal of molecular biomarkers & diagnosis, 2014).
Peptide text beside a SMILES is read from it. * marks the point of attachment. DOTA = O=C(O)CN1CCN(CC(=O)O)CCN(CC(=O)*)CCN(CC(=O)O)CC1

Columns and labels:
HEK-293 cells [1] = assay: 111In-DOTA-EGFL6 cell binding; type: cell-based, human; conditions: 37°C, 1 h, gamma counter, mean ± SD of 4 samples
Method: (§1) DOTA-EGFL6 was diluted to 1 mg/mL in water and incubated with 0.1 M ammonium acetate (pH 5) and 18.5 MBq of ^111In at 80°C for 1 h. Reactions were quenched by addition of 10 µM EDTA. Radiolabeled peptide was purified by reverse phase HPLC using a linear gradient of acetonitrile plus 0.1% trifluoroacetic acid from 5–95% over 35 minutes. Acetonitrile was evaporated by nitrogen gas flow, and peptide was d iluted to appropriate concentration using sterile PBS.
(§2) MDA-MB-435, MDA-MB-468, SK-BR-3 and HEK-293 cells were diluted to 2×10^6 cells/mL in Dulbelco’s Modified Eagle Medium (DMEM) with 0.1 mg/mL BSA. ^111In-DOTA-EGFL6 was diluted to 1×10^7 CPM/mL in DMEM plus 0.1% BSA and 100 µL of peptide was added to 200 µL of cells and incubated at 37°C for 1 h. Cells were washed three times with ice-cold PBS with 1% BSA and counted via gamma counter.

MDA-MB-435 cells [2] = assay: 111In-DOTA-EGFL6 cell binding; type: cell-based, human; conditions: 37°C, 1 h, gamma counter, mean ± SD of 4 samples
Method: as §1, §2

MDA-MB-468 cells [3] = assay: 111In-DOTA-EGFL6 cell binding; type: cell-based, human; conditions: 37°C, 1 h, gamma counter, mean ± SD of 4 samples
Method: as §1, §2

SK-BR-3 cells [4] = assay: 111In-DOTA-EGFL6 cell binding; type: cell-based, human; conditions: 37°C, 1 h, gamma counter, mean ± SD of 4 samples
Method: as §1, §2

in vivo = assay: in vivo; set-up: species or system SCID mice; conditions: SCID (outbred, Taconic), mouse, iv, total radioactivity
Method: Four- to 6-week-old Severe Combined Immunodeficient (SCID) out bred mice (Taconic, Germantown, NY) was maintained in approved pathogen-free institutional housing. Animal studies were conducted as outlined in the NIH Guidelines for the Care and Use of Laboratory Animals and the Policy and Procedures for Animal Research of the Harry S. Truman Veterans Memorial Hospital. MDA-MB-435 human breast cancer xenografts (5×10^6) were established by subcutaneous injection into the flank of SCID mice. Mice were utilized when visual tumors (~1–3mm^3) formed after approximately 5 weeks.
DOTA-EGFL6 peptide was radiolabeled with ^111In and purified peptide was prepared at 1.85 MBq/mL in sterile PBS. Three mice bearing MDA-MB-435 tumors were intravenously injected with ^111In-DOTA-EGFL6 and sacrificed at 2 h. Organs and tissues pertinent to tumor uptake and clearance were excised, weighed, and counted by gamma counter. Percentage of injected dose per gram (%ID/g) of tissue was reported to normalize uptake by tissue mass.

[5] = tested on: MDA-MB-435 human breast cancer xenograft; type: in vivo, SCID mice; conditions: 2 h post-injection, intravenous
Method: Four- to 6-week-old Severe Combined Immunodeficient (SCID) out bred mice (Taconic, Germantown, NY) was maintained in approved pathogen-free institutional housing. Animal studies were conducted as outlined in the NIH Guidelines for the Care and Use of Laboratory Animals and the Policy and Procedures for Animal Research of the Harry S. Truman Veterans Memorial Hospital. MDA-MB-435 human breast cancer xenografts (5×10^6) were established by subcutaneous injection into the flank of SCID mice. Mice were utilized when visual tumors (~1–3mm^3) formed after approximately 5 weeks. Radiolabeled, purified ^111In-DOTA-GSG-EGFL6 was diluted to 11.1 MBq in 100 µL of sterile PBS. The peptide was injected intravenously in a mouse bearing an MDA-MB-435 human breast cancer xenograft. Following injection, radiolabeled peptide was permitted to circulate for 2h, followed by euthanization by carbon dioxide. The treated mouse was imaged at the Harry S. Truman Veterans Memorial Hospital Biomolecular Imaging Center. Overnight (7h) image acquisition was performed with a Siemens Inveon Micro-SPECT/CT (Siemens, Knoxville, TN) equipped with mouse whole body 1.0 mm collimators. Data were processed with Inveon Research Workplace processing software and fan beam (Feldkamp) filtered back projection algorithms were used for reconstruction of the CT tomographic image.

SK-BR-3 cells [6] = assay: Biotinylated peptide fluorescent microscopy; type: cell-based, human; conditions: fixed SK-BR-3 cells, 10 µM biotinylated peptide in PBS, 1 h room temperature, Neutravidin Texas Red detection
Method: (§3) All cell lines were grown to 80% confluency and fixed with 4% paraformaldehyde. Cells were dried onto microscope slides overnight followed by rehydration with PBS. Slides were blocked with 5% BSA in PBS for 2 h at room temperature. Biotinylated EGFL6 peptide was diluted to 10 µM in PBS and 100 µL was added to each cell sample for incubation at room temperature for 1 h. Slides were washed 3 times with 0.1% TBST and cells were incubated with Neutravidin Texas Red (Life Technologies, Rockville, MD) diluted to 5 µg/mL in 0.1% TBST for 1 h at room temperature. Washing was performed in the same manner and cells were visualized by an epifluorescent Nikon T1-SM inverted microscope (Nikon, Melville, NY).

HEK-293 cells [7] = assay: Biotinylated peptide fluorescent microscopy; type: cell-based, human; conditions: fixed HEK-293 cells, 10 µM biotinylated peptide in PBS, 1 h room temperature, Neutravidin Texas Red detection
Method: as §3

MDA-MB-435 cells [8] = assay: Biotinylated peptide fluorescent microscopy; type: cell-based, human; conditions: fixed MDA-MB-435 cells, 10 µM biotinylated peptide in PBS, 1 h room temperature, Neutravidin Texas Red detection
Method: as §3

MDA-MB-468 cells [9] = assay: Biotinylated peptide fluorescent microscopy; type: cell-based, human; conditions: fixed MDA-MB-468 cells, 10 µM biotinylated peptide in PBS, 1 h room temperature, Neutravidin Texas Red detection
Method: as §3

MDA-MB-435 cells [10] = conditions: ref Previous work (reference number not given); cited from earlier work

C[C@H](NC(=O)[C@H](Cc1c[nH]c2ccccc12)NC(=O)[C@H](CCCCN)NC(=O)[C@@H](NC(=O)CNC(=O)CNC(=O)[C@H](CO)NC(=O)CNC(=O)CN1CCN(CC(=O)O)CCN(CC(=O)O)CCN(CC(=O)O)CC1)[C@@H](C)O)C(=O)N[C@@H](CS)C(=O)N[C@@H](CS)C(=O)N[C@@H](Cc1ccc(O)cc1)C(=O)NCC(=O)N[C@@H](Cc1c[nH]c2ccccc12)C(=O)N[C@@H](CCCNC(=N)N)C(=O)N[C@@H](CC(N)=O)C(=O)N[C@@H](CO)C(=O)N[C@@H](CO)C(=O)O [^111In-DOTA-EGFL6, metal not drawn] ({DOTA}-GSGGTKWACCYGWRNSS-OH; N-terminus and C-terminus assumed)
Peptide binding, % of total peptide added (HEK-293 cells [1]): 5.4 ± 0.5% | Peptide binding, % of total peptide added (MDA-MB-435 cells [2]): 12.3 ± 1.0% | Peptide binding, % of total peptide added (MDA-MB-468 cells [3]): 10.5% ± 2.7 | Peptide binding, % of total peptide added (SK-BR-3 cells [4]): 4.7 ± 0.2% | tissue uptake at 2 h (in vivo; Blood retention): 1.3 ± 0.51 %ID/g | tissue uptake at 2 h (in vivo; Kidney retention): 28.6 ± 4.24 %ID/g | tissue uptake at 2 h (in vivo; Non-target organ accumulation, all organs measured except the kidneys): < 1 %ID/g | tissue to tissue ratio at 2 h (in vivo; Tumor to blood ratio): 0.27 | tissue to tissue ratio at 2 h (in vivo; Tumor to muscle ratio): 2.7 | tissue uptake at 2 h (in vivo; Tumor uptake): 0.36 ± 0.08 %ID/g | Radiolabel at interface between xenograft and muscle (vasculature-like binding) in SPECT/CT image [5]: strikingly high concentration of radiolabel | Tumor uptake in SPECT/CT image ([5]; 11.1 MBq, one mouse): low tumor uptake

GTKWACCYGWRNSS [EGFL6 peptide]
Peptide binding by fluorescent microscopy (SK-BR-3 cells [6]): undetectable

GTKWACCYGWRNSS [Biotinylated EGFL6 peptide, EGFL6 peptide with N-terminal GSG spacer conjugated at the N-terminus with biotin]
Peptide binding by fluorescent microscopy (HEK-293 cells [7]): no binding | Peptide binding by fluorescent microscopy (MDA-MB-435 cells [8]): bound strongly | Peptide binding by fluorescent microscopy (MDA-MB-468 cells [9]): bound strongly

GTKSKCCYSLRRSS [3-G03, phage selected peptide with 64% homology to EGFL6]
Binding to MDA-MB-435 cells in vitro (MDA-MB-435 cells [10]): bound to MDA-MB-435 cells
